The subject of one series is Staphylococcus aureus. To be noted: cited from earlier work.
Another series concerns R. oryzae. The arrangement: method as in PMID 23818006. Particulars: cited from earlier work.
The next series concerns Aspergillus terreus. The arrangement: method as in PMID 23818006. Particulars: cited from earlier work.
The conditions of series [1]: non-infected rats; cited from earlier work.
The test system of series [2] is pulmonary A. fumigatus infection. Put plainly: Ex vivo biodistribution in A. fumigatus-infected rats. Also noted: species or system rat. To be noted: 45 min p.i. The procedure:
(§1) A previously described rat model of pulmonary aspergillosis was used for the in vivo experiments. The introduction of A. fumigatus spores into animals, injection of radiolabeled siderophores and small animal imaging were carried out under 2% isoflurane anesthesia (FORANE, Abbott Laboratories, Abbott Park, IL, USA) to minimize animal suffering and prevent animal motion. Infection in the lung of immunodeficient rats was established by intratracheal inoculation of 100 μL of A. fumigatus spores (10^9 CFU/mL A. fumigatus ATCC 46645; American Type Culture Collection) using the TELE PACK VET X LED system equipped with a flexible endoscope (https://www.karlstorz.com/cps/rde/xbcr/karlstorz_assets/ASSETS/3386919.pdf, accessed on 20 August 2021; Karl Storz GmbH & Co. KG, Tuttlingen, Germany). Depending on the development of the infection, experimental animals underwent an ex vivo biodistribution study or PET/CT imaging, typically 2–4 days after inoculation.
A. fumigatus-infected rats were retro-orbitally (r.o.) injected with [^67Ga]- and [^68Ga]Ga-DFO-B and DFO-E. One infected rat (rat 1) was injected with [^68Ga]Ga-DFO-B and [^67Ga]Ga-DFO-E, while the second rat (rat 2) was […] with [^67Ga]Ga-DFO-B and [^68Ga]Ga-DFO-E (~0.5 MBq and ~0.5 µg of each DFO-B and DFO-E per rat). Rats were sacrificed by exsanguination 45 min post-injection (p.i.). Organs and tissues of interest (blood, spleen, pancreas, kidneys, liver, heart, muscle and lung) were removed and weighed. The amount of radioactivity in the samples was measured in a γ-counter (2480 Wizard-2; Perkin Elmer, Waltham, MA, USA). First, a short-lived ^68Ga was measured immediately after organ removal in the 511 ± 100 keV energy window, and ^67Ga was measured after 24 h in the 185 ± 100 keV energy window. The results are expressed as percentage of injected dose per gram of organ (%ID/g).

The test system of a further series is Fusarium solani. Also noted: method as in PMID 23818006. To be noted: cited from earlier work.
A further series deals with Aspergillus flavus. The arrangement: method as in PMID 23818006. To be noted: cited from earlier work.
Another series has as its system A. fumigatus. To be noted: cited from earlier work.
For another series, the system named is Klebsiella pneumoniae. To be noted: cited from earlier work.
Details of series [3]: method as in PMID 32734456. To be noted: cited from earlier work.
Another series concerns Streptococcus agalactiae. The arrangement: method as in PMID 22172389, PMID 32734456. To be noted: cited from earlier work.
Series [4] relates to pulmonary A. fumigatus infection. Put plainly: PET/CT imaging in rat model of pulmonary aspergillosis. To be noted: A. fumigatus-infected rats, r.o. injection. The format is in vivo, Lewis rats. The procedure:
as §1
µPET/CT images were acquired with an Albira PET/SPECT/CT small animal imaging system (Bruker Biospin Corporation, Woodbridge, CT, USA). […] After reconstruction, acquired data were viewed, analyzed and processed using the appropriate software (PMOD software, PMOD Technologies Ltd., Zurich, Switzerland and VolView software, Kitware, Clifton Park, NY, USA).

Series [5] relates to A. fumigatus strain Afs77. Briefly: Short-term siderophore uptake analysis. The format is cell-based, Aspergillus fumigatus. To be noted: 45 min at 37 °C. The procedure: Short-term uptake of siderophore-complexed ^68Ga was analyzed as described previously. A. fumigatus strain Afs77 [25] was grown for 18 h at 37 °C in 100 mL Aspergillus minimal medium (AMM) according to Pontecorvo et. al. with 1% (w/v) glucose as the carbon source and 20 mM glutamine as the nitrogen source, using iron-free trace elements to induce iron limiting for the transcriptional activation of siderophore uptake. To generate iron-replete mycelia for the transcriptional downregulation of siderophore uptake, the growth medium contained an additional 0.03 mM FeSO4. For the analysis of the pH-dependent siderophore uptake, the pH of the fungal culture medium was adjusted with HCl (1 M) and NaOH (1 M) immediately before the uptake analyses. Uptake assays were performed with 180 µL of liquid A. fumigatus culture added to a prewetted 96-well MultiScreen Filter Plates HTS (1 μm glass fiber filter, Merck Millipore, Darmstadt, Germany). Then, 50 µL of radioactive labelled siderophores (~100 nM) were added to the culture and incubated for 45 min at 37 °C. After washing two times with ice-cold TRIS buffer, the dried filters were measured in a γ-counter.

A further series deals with Pseudomonas aeruginosa. To be noted: cited from earlier work.
Details of series [6]: method as in PMID 32734456. Particulars: healthy mice; cited from earlier work.
On the set-up of series [7]: method as in PMID 32734456. To be noted: cited from earlier work. The source holds these as a separate data set.
Another series has as its system Escherichia coli. Also noted: method as in PMID 22172389, PMID 32734456. To be noted: cited from earlier work.
Where [8] appears, read: infected rat 1 (injected with [68Ga]Ga-DFO-B and [67Ga]Ga-DFO-E).
Setting [9] is: infected rat 2 (injected with [67Ga]Ga-DFO-B and [68Ga]Ga-DFO-E).

`O=C1CCC(=O)N([O-])CCCCCNC(=O)CCC(=O)N([O-])CCCCCNC(=O)CCC(=O)N([O-])CCCCCN1.[68Ga+3]` [[^68Ga]Ga-DFO-E]: the in vitro uptake result in the series with Staphylococcus aureus is on record as “considerable uptake”; in the series on R. oryzae, “considerable uptake”; in the series with Aspergillus terreus, “considerable uptake”; in the series with Fusarium solani, “considerable uptake”; with Aspergillus flavus it was “considerable uptake”; with A. fumigatus, “highest uptake”. In series [1], the “accumulation in the lungs” value is reported as “negligible accumulation”. Moreover, in series [1], the “ratio of 68Ga activity in lung vs. blood” value was 0.79. The “ratio of activity in lung vs. blood” value in series [2] (setting [8]) was “about 17”; in [2] (setting [9]), roughly 8. Further, the “radioactivity accumulation in non-infected organs (blood, spleen, pancreas, liver, heart and muscle)” value in series [2] (infected rats) is on record as “low radioactivity accumulation”. In [2] (infected rats), the route of excretion result was “primary excretion via kidneys”. In addition, in series [2] (infected rats, co-injection), the “uptake in the infected lungs as compared with radiolabeled DFO-B in the same rat” value was “only slightly higher uptake”.

Turning to `CC(=O)N([O-])CCCCCNC(=O)CCC(=O)N([O-])CCCCCNC(=O)CCC(=O)N([O-])CCCCCN.[68Ga+3]` [[^68Ga]Ga-DFO-B], the in vitro uptake entry in the series with Klebsiella pneumoniae is “lack significant uptake”; with Staphylococcus aureus it was “uptake was found”; with Streptococcus agalactiae, “uptake was found”; in the series with A. fumigatus, “uptake was found”; in the series with Pseudomonas aeruginosa, “uptake was found”; in the series with Escherichia coli, “lack significant uptake”. The protein binding entry in series [3] was “low protein binding”. The “accumulation in the lungs” value in series [1] is listed as “negligible accumulation”. For the same molecule, in series [1], the “ratio of 68Ga activity in lung vs. blood” value is reported as 0.84. Besides, the figures for the “ratio of activity in lung vs. blood” value in [2] (setting [8]) and in [2] (setting [9]) were “about 17” and roughly 8, respectively. Moreover, the “radioactivity accumulation in non-infected organs (blood, spleen, pancreas, liver, heart and muscle)” value in [2] (infected rats) is given as “low radioactivity accumulation”. For the same molecule, the route of excretion result in series [2] (infected rats) was “primary excretion via kidneys”. The “elimination of unbound tracer” value in [4] (PET/CT 45 min p.i.) is “rapidly eliminated via the renal system”. The “PET/CT imaging of the infected area in the lungs” value in series [4] (static PET/CT 45 min p.i.) is reported as “clear depiction of the infected area in the lungs”. The “uptake efficacy compared to [68Ga]Ga-DFO-E” value in series [5] (pH 5, iron-limited culture) is listed as “approximately 20%”; in [5] (pH 7, iron-limited culture), “about 50%”; in [5] (pH 9, iron-limited culture), roughly 80%. Besides, in series [6], the renal excretion entry is “rapid renal excretion”. In addition, the “retention in the blood and other organs” value in series [6] is listed as “minimal retention”. For the same molecule, the “stability in human serum and PBS” value in series [7] is “high stability”.

(Values after paper PMC8472378, “Desferrioxamine B-Mediated Pre-Clinical In Vivo Imaging of Infection by the Mold Fungus Aspergillus fumigatus” (Journal of Fungi, 2021).)
